# US6660910B1, “Selection marker” (Syngenta Mogen B.V., priority 1997, dated 2003)
# Legend:
# [1] = system: stem segments of Solanum tuberosum cv. Kardal; experiment: Transformation of potato stem segments with selection on cyanamide or kanamycin; type: cell-based
# Protocol: Described below is the method used for transformation of stem segments of Solanum tuberosum cv. Kardal using Agrobacterium tumefaciens. Nodal explants from in vitro grown potato plants were used 3 to 8 weeks after transfer. The plants were grown on Multiplication Medium (MUM) under a 16 h light period (1700 lux) at 24° C. and a 8 h dark period at 21° C. (The various media can be found in Table 2). Stem segments of approximately 5 mm were cut on sterile filter paper soaked with Washing Medium (WAM) and collected in a flask containing Washing Medium. For approximately 300 explants the Washing Medium was replaced by Pre cultivation Medium (PRM). The flasks were cultured at 80 rpm at the same culture conditions as described above for approximately 24 h. All binary vectors used in this study contained the nptII gene as a plant selectable marker and the nptIII as bacterial selectable marker. Plasmid pMOG410 additionally harbored a chimeric gus gene containing an intron (Vancanneyt et al. Mol. Gen. Genet., 220, 245-250, 1990). Plasmid pMOG1156 additionally harbored the gus gene and the chimeric cah gene encoding cyanamide hydratase. Plasmid pMOG874 additionally harbored the cah gene. Plasmids were maintained in E.coli and A. tumefaciens under kanamycin selection.
# The Agrobacterium strain used in this study harbored a rifampicin selection marker in a C58 chromosomal background. The construction of the helper strain EHA105 is described by Hood et al. (1993), Transg. Res. 2, 208-218.
# Agrobacteria were grown overnight in LB medium with antibiotics (rifampicin 20 mg/l, kanamycin 100 mg/l). The overnight culture was diluted to OD600=0.1 and grown to OD600=0.3 in LB without antibiotics in approximately 2 h time. Bacterial suspensions were centrifuged at 1600×g for 15 minutes at room temperature. Bacteria were resuspended in Washing Medium and used for cocultivation experiments. The Pre cultivation Medium was removed from the flasks and replaced by the Agrobacterium suspension. The flasks were incubated for 20 minutes after which the explants were rinsed twice with Washing Medium. The explants were dried on sterile filter paper and incubated for 48 h on plates containing Cocultivation Medium (COM). Then, the explants were transferred to Post cultivation Medium (POM) and incubated for 72 h. The explants were then transferred to Shoot inducing Medium (SIM) containing several concentrations cyanamide or kanamycin. After two weeks the explants were subcultured on the same medium and approximately three weeks later the explants were placed on Shoot elongation Medium (SEM) containing cyanamide or kanamycin as mentioned above. When shoots were large enough to cut they were transferred to Root inducing Medium (RIM). Shoots that were able to root were then transferred to Root inducing Medium containing 50 mg/l cyanamide or 30 mg/l kanamycin. Simultaneously the transgenic nature of the shoots was determined by testing leaflets of the rooted shoots for expression of the gus gene using a histochemical GUS assay. It appeared that for pMOG1156 rooting of transgenic shoots on medium containing cyanamide was completely correlated with expression of the gus gene.
# [2] = system: cotyledons of Lycopersicon esculentum cv. Money Maker; experiment: Transformation of tomato cotyledon explants with selection on cyanamide or kanamycin; type: cell-based
# Protocol: Described below is the method used for transformation of cotyledons of Lycopersicon esculentum cv. Money Maker using Agrobacterium tumefaciens. The binary vectors and Agrobacteria strains for this transformation method are identical to those described above. Tomato seedlings were germinated on Germination Medium (GEM) under a 16 h light period (1700 lux) at 24° C. and a 8 h dark period at 21° C. (The contents of the various media can be found in Table 4). Cotyledon explants of 5 to 7 day old seedlings were cut on sterile filter paper soaked with Washing Medium (WAM) and placed on plates containing Cocultivation Medium (COM). The plates, each containing approximately 50 explants, were incubated overnight under the same conditions as described above.
# The pre incubated explants were carefully submerged in the Agrobacterium inoculum for 20 minutes.
# The explants were then blotted dry on sterile filter paper and incubated for 48 h on the second set of Cocultivation plates. In procession the explants were incubated for 72 h on plates containing Postcultivation Medium (POM) after which the explants were transferred to Shoot inducing Medium (SIM) containing several concentrations of cyanamide or kanamycin. Every three weeks the explants were subcultured on the same medium. After approximately 8-12 weeks shoots were excised and placed on Root inducing Medium (RIM). Shoots that were able to root were then transferred to Root inducing Medium containing 50 mg/l cyanamide or 30 mg/l kanamycin. Simultaneously leaflets of the rooted shoots were tested for expression of the gus gene in a histochemical GUS assay.
# [3] = pMOG410 (gus-nptII), Cyanamide 20 mg/l during regeneration, 62 inoculated explants
# [4] = pMOG410 (gus-nptII), Cyanamide 30 mg/l during regeneration, 62 inoculated explants
# [5] = pMOG410 (gus-nptII), Cyanamide 40 mg/l during regeneration, 62 inoculated explants
# [6] = pMOG1156 (cah-gus-nptII), Cyanamide 20 mg/l during regeneration, 48 inoculated explants
# [7] = pMOG1156 (cah-gus-nptII), Cyanamide 30 mg/l during regeneration, 48 inoculated explants
# [8] = pMOG1156 (cah-gus-nptII), Cyanamide 40 mg/l during regeneration, 48 inoculated explants
# [9] = pMOG410 (gus-nptII), Cyanamide 20 mg/l during regeneration, 30 inoculated explants
# [10] = pMOG410 (gus-nptII), Cyanamide 30 mg/l during regeneration, 30 inoculated explants
# [11] = pMOG410 (gus-nptII), Cyanamide 40 mg/l during regeneration, 30 inoculated explants
# [12] = pMOG1156 (gus-nptII-cah), Cyanamide 20 mg/l during regeneration, 30 inoculated explants
# [13] = pMOG1156 (gus-nptII-cah), Cyanamide 30 mg/l during regeneration, 30 inoculated explants
# [14] = pMOG1156 (gus-nptII-cah), Cyanamide 40 mg/l during regeneration, 30 inoculated explants
# [15] = pMOG410 (gus-nptII), Kanamycin 50 mg/l during regeneration, 58 inoculated explants
# [16] = pMOG1156 (cah-gus-nptII), Kanamycin 50 mg/l during regeneration, 48 inoculated explants
# [17] = pMOG410 (gus-nptII), Kanamycin 100 mg/l during regeneration, 30 inoculated explants
# [18] = pMOG1156 (gus-nptII-cah), Kanamycin 100 mg/l during regeneration, 30 inoculated explants
compound,measurement,setting,value
N#CN [Cyanamide],No. of excised shoots,[1]; [3],48
same,No. of gus + shoots,[1]; [3],0
same,No. of rooting shoots,"[1]; pMOG410 (gus-nptII), Cyanamide 20 mg/l during regeneration, 62 inoculated explants, rooting medium 50 mg/l cyanamide",0
same,No. of excised shoots,[1]; [4],10
same,No. of gus + shoots,[1]; [4],0
same,No. of rooting shoots,"[1]; pMOG410 (gus-nptII), Cyanamide 30 mg/l during regeneration, 62 inoculated explants, rooting medium 50 mg/l cyanamide",0
same,No. of excised shoots,[1]; [5],0
same,No. of gus + shoots,[1]; [5],0
same,No. of rooting shoots,"[1]; pMOG410 (gus-nptII), Cyanamide 40 mg/l during regeneration, 62 inoculated explants, rooting medium 50 mg/l cyanamide",0
same,No. of excised shoots,"[1]; pMOG874 (cah-nptII), Cyanamide 20 mg/l during regeneration, 58 inoculated explants",81
same,No. of rooting shoots,"[1]; pMOG874 (cah-nptII), Cyanamide 20 mg/l during regeneration, 58 inoculated explants, rooting medium 50 mg/l cyanamide",2
same,No. of excised shoots,"[1]; pMOG874 (cah-nptII), Cyanamide 30 mg/l during regeneration, 58 inoculated explants",40
same,No. of rooting shoots,"[1]; pMOG874 (cah-nptII), Cyanamide 30 mg/l during regeneration, 58 inoculated explants, rooting medium 50 mg/l cyanamide",8
same,No. of excised shoots,"[1]; pMOG874 (cah-nptII), Cyanamide 40 mg/l during regeneration, 58 inoculated explants",10
same,No. of rooting shoots,"[1]; pMOG874 (cah-nptII), Cyanamide 40 mg/l during regeneration, 58 inoculated explants, rooting medium 50 mg/l cyanamide",1
same,No. of excised shoots,[1]; [6],56
same,No. of gus + shoots,[1]; [6],6
same,No. of rooting shoots,"[1]; pMOG1156 (cah-gus-nptII), Cyanamide 20 mg/l during regeneration, 48 inoculated explants, rooting medium 50 mg/l cyanamide",6
same,No. of excised shoots,[1]; [7],50
same,No. of gus + shoots,[1]; [7],12
same,No. of rooting shoots,"[1]; pMOG1156 (cah-gus-nptII), Cyanamide 30 mg/l during regeneration, 48 inoculated explants, rooting medium 50 mg/l cyanamide",12
same,No. of excised shoots,[1]; [8],15
same,No. of gus + shoots,[1]; [8],2
same,No. of rooting shoots,"[1]; pMOG1156 (cah-gus-nptII), Cyanamide 40 mg/l during regeneration, 48 inoculated explants, rooting medium 50 mg/l cyanamide",2
same,No. of excised shoots,[2]; [9],0
same,No. of gus + shoots,[2]; [9],0
same,No. of rooting shoots,"[2]; pMOG410 (gus-nptII), Cyanamide 20 mg/l during regeneration, 30 inoculated explants, rooting medium 50 mg/l cyanamide",0
same,No. of excised shoots,[2]; [10],3
same,No. of gus + shoots,[2]; [10],0
same,No. of rooting shoots,"[2]; pMOG410 (gus-nptII), Cyanamide 30 mg/l during regeneration, 30 inoculated explants, rooting medium 50 mg/l cyanamide",0
same,No. of excised shoots,[2]; [11],0
same,No. of gus + shoots,[2]; [11],0
same,No. of rooting shoots,"[2]; pMOG410 (gus-nptII), Cyanamide 40 mg/l during regeneration, 30 inoculated explants, rooting medium 50 mg/l cyanamide",0
same,No. of excised shoots,"[2]; pMOG874 (cah-nptII), Cyanamide 20 mg/l during regeneration, 35 inoculated explants",2
same,No. of rooting shoots,"[2]; pMOG874 (cah-nptII), Cyanamide 20 mg/l during regeneration, 35 inoculated explants, rooting medium 50 mg/l cyanamide",0
same,No. of excised shoots,"[2]; pMOG874 (cah-nptII), Cyanamide 30 mg/l during regeneration, 35 inoculated explants",0
same,No. of rooting shoots,"[2]; pMOG874 (cah-nptII), Cyanamide 30 mg/l during regeneration, 35 inoculated explants, rooting medium 50 mg/l cyanamide",0
same,No. of excised shoots,"[2]; pMOG874 (cah-nptII), Cyanamide 40 mg/l during regeneration, 35 inoculated explants",1
same,No. of rooting shoots,"[2]; pMOG874 (cah-nptII), Cyanamide 40 mg/l during regeneration, 35 inoculated explants, rooting medium 50 mg/l cyanamide",1
same,No. of excised shoots,[2]; [12],0
same,No. of gus + shoots,[2]; [12],0
same,No. of rooting shoots,"[2]; pMOG1156 (gus-nptII-cah), Cyanamide 20 mg/l during regeneration, 30 inoculated explants, rooting medium 50 mg/l cyanamide",0
same,No. of excised shoots,[2]; [13],5
same,No. of gus + shoots,[2]; [13],0
same,No. of rooting shoots,"[2]; pMOG1156 (gus-nptII-cah), Cyanamide 30 mg/l during regeneration, 30 inoculated explants, rooting medium 50 mg/l cyanamide",0
same,No. of excised shoots,[2]; [14],5
same,No. of gus + shoots,[2]; [14],3
same,No. of rooting shoots,"[2]; pMOG1156 (gus-nptII-cah), Cyanamide 40 mg/l during regeneration, 30 inoculated explants, rooting medium 50 mg/l cyanamide",3
NC[C@H]1O[C@H](O[C@H]2[C@H](O)[C@@H](O[C@H]3O[C@H](CO)[C@@H](O)[C@H](N)[C@H]3O)[C@H](N)C[C@@H]2N)[C@H](O)[C@@H](O)[C@@H]1O [Kanamycin],No. of excised shoots,[1]; [15],24
same,No. of gus + shoots,[1]; [15],12
same,No. of rooting shoots,"[1]; pMOG410 (gus-nptII), Kanamycin 50 mg/l during regeneration, 58 inoculated explants, rooting medium 30 mg/l kanamycin",13
same,No. of excised shoots,"[1]; pMOG874 (cah-nptII), Kanamycin 50 mg/l during regeneration, 58 inoculated explants",34
same,No. of rooting shoots,"[1]; pMOG874 (cah-nptII), Kanamycin 50 mg/l during regeneration, 58 inoculated explants, rooting medium 30 mg/l kanamycin",26
same,No. of excised shoots,[1]; [16],26
same,No. of gus + shoots,[1]; [16],16
same,No. of rooting shoots,"[1]; pMOG1156 (cah-gus-nptII), Kanamycin 50 mg/l during regeneration, 48 inoculated explants, rooting medium 30 mg/l kanamycin",16
same,No. of excised shoots,[2]; [17],4
same,No. of gus + shoots,[2]; [17],3
same,No. of rooting shoots,"[2]; pMOG410 (gus-nptII), Kanamycin 100 mg/l during regeneration, 30 inoculated explants, rooting medium 30 mg/l kanamycin",3
same,No. of excised shoots,"[2]; pMOG874 (cah-nptII), Kanamycin 100 mg/l during regeneration, 35 inoculated explants",4
same,No. of rooting shoots,"[2]; pMOG874 (cah-nptII), Kanamycin 100 mg/l during regeneration, 35 inoculated explants, rooting medium 30 mg/l kanamycin",1
same,No. of excised shoots,[2]; [18],5
same,No. of gus + shoots,[2]; [18],4
same,No. of rooting shoots,"[2]; pMOG1156 (gus-nptII-cah), Kanamycin 100 mg/l during regeneration, 30 inoculated explants, rooting medium 30 mg/l kanamycin",3
